BindingDB's records for PubMed 33314936 (n/a, 2020)

Test: Agonist activity at human PGI2 receptor assessed as inhibition of ADP-induced platelet aggregation

- IC50: 6.4 µM
SMILES: CC(C)N(CCCCOCC(=O)NS(C)(=O)=O)c1cnc(-c2ccccc2)c(-c2ccccc2)n1 [ACT-293987]
